For 8 compounds, IC50 and melting point results are on record in patent publication US20110009447A1, “Substituted Benzoic Acid Amides and Use thereof for the Inhibition of Angiogenesis” (priority 2001, published 2011).

One series concerns the target VEGFR II (KDR) (Homo sapiens, UniProt P35968). In words: Inhibition of KDR kinase activity (33P-ATP, poly-(Glu4Tyr) phosphocellulose filter assay). It counts as biochemical. Conditions: poly-(Glu4Tyr) substrate, 10 minutes at room temperature. As to the method: (§1) • Stock solutions • Stock solution A: 3 mmol of ATP in water, pH 7.0 (−70° C.) • Stock solution B: g-33P-ATP 1 mCi/100 μl • Stock solution C: poly-(Glu4Tyr) 10 mg/ml in water Solution for dilutions • Substrate solvent: 10 mmol of DTT, 10 mmol of manganese chloride, 100 mmol of magnesium chloride • Enzyme solution: 120 mmol of tris/HCl, pH 7.5, 10 μM of sodium vanadium oxide
In a microtiter plate (without protein binding) that tapers to a point, 10 μl of substrate mix (10 μl of volume of ATP stock solution A+25 μCi of g-33P-ATP (about 2.5 μl of stock solution B)+30 μl of poly-(Glu4Tyr) stock solution C+1.21 ml of substrate solvent), 10 μl of inhibitor solution (substances corresponding to the dilutions, 3% DMSO in substrate solvent as a control) and 10 μl of enzyme solution (11.25 μg of enzyme stock solution (KDR or FLT-1 kinase) are added at 4° C. in 1.25 ml of enzyme solution (dilute). It is thoroughly mixed and incubated for 10 minutes at room temperature. Then, 10 μl of stop solution (250 mmol of EDTA, pH 7.0) is added, mixed, and 10 μl of the solution is transferred to a P 81 phosphocellulose filter. Then, it is washed several times in 0.1 M phosphoric acid. The filter paper is dried, coated with Meltilex and measured in a microbeta counter.
The IC50 values are determined from the inhibitor concentration, which is necessary to inhibit the phosphate incorporation to 50% of the uninhibited incorporation after removal of the blank reading (EDTA-stopped reaction).

A further series concerns the target VEGFR I (FLT) (Homo sapiens, UniProt P17948). Description: Inhibition of FLT-1 kinase activity (33P-ATP, poly-(Glu4Tyr) phosphocellulose filter assay). It counts as biochemical. The procedure: as §1
Then, it is washed several times in 0.1 M phosphoric acid. The filter paper is dried, coated with Meltilex and measured in a microbeta counter.

Where [1] appears, read: FLT-1 kinase, poly-(Glu4Tyr) substrate, 10 minutes at room temperature, read-out: kinase inhibition IC50 VEGFR I (FLT).

One may read the IC50 as the concentration needed to halve the response being measured. What is called melting point is the temperature of the solid-liquid transition.

Where two headings read alike, the source gives them in different places.

Chain of VEGFR II (KDR) (P35968 20-1356, species assumed): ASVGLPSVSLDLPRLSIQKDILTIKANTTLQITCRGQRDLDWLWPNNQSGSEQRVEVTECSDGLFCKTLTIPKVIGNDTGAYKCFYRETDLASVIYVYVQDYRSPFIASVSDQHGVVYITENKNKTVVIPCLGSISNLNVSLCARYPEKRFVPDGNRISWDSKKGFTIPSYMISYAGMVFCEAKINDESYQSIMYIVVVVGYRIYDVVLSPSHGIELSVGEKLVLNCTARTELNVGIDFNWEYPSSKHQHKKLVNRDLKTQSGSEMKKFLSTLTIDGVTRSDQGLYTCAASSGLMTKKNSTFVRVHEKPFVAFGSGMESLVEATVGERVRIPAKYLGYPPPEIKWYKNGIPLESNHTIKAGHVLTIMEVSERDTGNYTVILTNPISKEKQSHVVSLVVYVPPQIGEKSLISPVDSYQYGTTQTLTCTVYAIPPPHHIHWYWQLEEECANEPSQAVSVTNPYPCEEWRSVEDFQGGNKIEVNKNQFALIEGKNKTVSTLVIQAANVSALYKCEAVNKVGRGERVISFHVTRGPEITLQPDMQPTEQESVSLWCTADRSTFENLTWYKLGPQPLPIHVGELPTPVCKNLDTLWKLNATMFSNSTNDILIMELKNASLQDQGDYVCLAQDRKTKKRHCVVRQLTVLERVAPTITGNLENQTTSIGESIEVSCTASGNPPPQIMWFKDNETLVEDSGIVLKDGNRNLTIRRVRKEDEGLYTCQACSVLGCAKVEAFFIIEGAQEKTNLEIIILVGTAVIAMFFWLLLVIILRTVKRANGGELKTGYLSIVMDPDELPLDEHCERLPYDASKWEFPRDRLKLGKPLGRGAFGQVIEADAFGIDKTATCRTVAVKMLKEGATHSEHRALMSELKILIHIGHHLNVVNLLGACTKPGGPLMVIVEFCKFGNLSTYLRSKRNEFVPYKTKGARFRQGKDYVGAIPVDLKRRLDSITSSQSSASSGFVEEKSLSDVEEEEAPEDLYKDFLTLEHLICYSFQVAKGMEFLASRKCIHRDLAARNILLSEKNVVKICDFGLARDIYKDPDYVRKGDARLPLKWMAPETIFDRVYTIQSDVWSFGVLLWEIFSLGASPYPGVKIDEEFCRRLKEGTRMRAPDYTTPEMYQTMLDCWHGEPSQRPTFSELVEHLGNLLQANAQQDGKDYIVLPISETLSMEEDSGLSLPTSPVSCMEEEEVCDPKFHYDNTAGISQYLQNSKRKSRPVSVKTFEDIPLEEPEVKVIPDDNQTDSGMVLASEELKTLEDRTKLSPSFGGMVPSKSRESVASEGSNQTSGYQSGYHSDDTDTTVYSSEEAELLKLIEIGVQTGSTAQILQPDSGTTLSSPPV
Chain of VEGFR I (FLT) (P17948 27-1338, species assumed): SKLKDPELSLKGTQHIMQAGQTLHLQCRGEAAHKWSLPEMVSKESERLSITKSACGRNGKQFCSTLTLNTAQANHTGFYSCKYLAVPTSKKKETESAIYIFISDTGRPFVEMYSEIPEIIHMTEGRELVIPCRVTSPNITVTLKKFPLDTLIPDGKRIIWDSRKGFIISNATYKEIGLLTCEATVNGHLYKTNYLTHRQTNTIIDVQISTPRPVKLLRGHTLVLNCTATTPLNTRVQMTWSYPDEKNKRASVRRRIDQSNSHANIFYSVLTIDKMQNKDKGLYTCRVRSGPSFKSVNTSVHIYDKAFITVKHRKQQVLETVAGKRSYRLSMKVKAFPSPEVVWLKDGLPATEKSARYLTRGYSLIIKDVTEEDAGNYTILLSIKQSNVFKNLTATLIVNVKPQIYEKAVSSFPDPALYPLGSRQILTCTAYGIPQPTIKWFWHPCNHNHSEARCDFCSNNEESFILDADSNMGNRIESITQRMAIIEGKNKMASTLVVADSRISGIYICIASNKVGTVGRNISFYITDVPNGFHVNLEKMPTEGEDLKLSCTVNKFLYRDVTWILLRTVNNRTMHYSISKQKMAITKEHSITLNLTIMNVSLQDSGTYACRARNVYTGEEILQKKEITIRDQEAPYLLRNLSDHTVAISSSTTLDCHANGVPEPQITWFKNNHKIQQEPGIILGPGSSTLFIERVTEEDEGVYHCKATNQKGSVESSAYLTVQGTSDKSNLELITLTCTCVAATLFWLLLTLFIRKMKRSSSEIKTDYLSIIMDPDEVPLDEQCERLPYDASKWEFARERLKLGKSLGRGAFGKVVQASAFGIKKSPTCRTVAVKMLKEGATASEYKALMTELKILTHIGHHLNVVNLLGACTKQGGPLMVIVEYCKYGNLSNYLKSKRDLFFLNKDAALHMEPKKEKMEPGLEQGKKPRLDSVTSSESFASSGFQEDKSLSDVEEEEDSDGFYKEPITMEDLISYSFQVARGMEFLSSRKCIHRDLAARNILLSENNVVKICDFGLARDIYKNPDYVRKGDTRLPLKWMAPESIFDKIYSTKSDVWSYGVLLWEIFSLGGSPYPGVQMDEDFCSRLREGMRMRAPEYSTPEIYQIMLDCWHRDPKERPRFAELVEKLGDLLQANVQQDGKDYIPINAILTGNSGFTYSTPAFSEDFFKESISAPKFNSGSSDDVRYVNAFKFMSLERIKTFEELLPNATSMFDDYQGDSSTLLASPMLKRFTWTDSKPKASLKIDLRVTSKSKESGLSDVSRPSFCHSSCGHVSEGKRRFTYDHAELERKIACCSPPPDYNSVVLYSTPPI

On to `CCCCCCCNC(=O)c1ccccc1/C=C\c1ccc(OC)cc1` [Example 1.64], for which the IC50 on VEGFR II (KDR) came to 0.3 µM; on VEGFR I (FLT) (setting [1]), 0.2 µM.
The compound `CCCc1ccc(NC(=O)c2ccccc2CCc2ccc(OC)cc2)cc1` [Example 1.67] registered a melting point of 113.7 °C. 5 µM corresponded to half-maximal inhibition against VEGFR II (KDR) (IC50).
On to `CCCc1ccc(NC(=O)c2ccccc2CCc2ccncc2)cc1` [Example 1.1], for which the IC50 against VEGFR II (KDR) and against VEGFR I (FLT) was 0.2 µM in each case.
On to `COc1ccc(/C=C\c2ccccc2C(=O)Nc2cnc3ccccc3c2)cc1` [Example 1.60], for which the 50% inhibitory concentration (IC50) at VEGFR II (KDR) was 0.5 µM; on VEGFR I (FLT) (setting [1]) it was 2 µM.
`O=C(Nc1ccc(Cl)cc1)c1cccc(C#Cc2cccnc2)c1` [Example 1.54] returned a melting point of 179 °C. The IC50 on VEGFR II (KDR) stood at 0.5 µM. The IC50 at VEGFR I (FLT) (setting [1]) was found to be 0.05 µM.
Take `COc1ccc(CCc2ccccc2C(=O)Nc2cnc3ccccc3c2)cc1` [Example 1.89]: the IC50 on VEGFR II (KDR) was determined as 0.3 µM; on VEGFR I (FLT) (setting [1]) it was 2 µM.
`O=C(NCC1CCCCC1)c1ccccc1CCc1ccncc1` [Example 1.31] came in with a melting point of 105 to 107 °C. In addition, the IC50 at VEGFR II (KDR) worked out at 0.4 µM. Further, at VEGFR I (FLT) (setting [1]), the concentration for half-maximal inhibition (IC50) came to 0.2 µM.
The like results for `COc1ccc(/C=C\c2ccccc2C(=O)Nc2ccc(Cl)cc2)cc1` [Example 1.57] were, in that order, 137.9 °C, 0.2 µM and 0.2 µM.
